Results on 17 compounds are retold here after EP0076622A1, “Anthelmintics” (BEECHAM GROUP PLC, priority 1981, dated 1983).

The assay concerns Nematospiroides dubius. The assay is described as follows: Oral activity against experimental infections of Nematospiroides dubius in the mouse (worm numbers of treated vs untreated control animals). Type of assay: in vivo. The note with it: calculated from worm numbers of treated and control animals; for inhibition in vivo at 100 mg/kg / inhibition in vivo at 200 mg/kg: Heligmosomoides polygyrus, po. The protocol: The oral activity of the following compounds, against experimental infections of Nematospiroides dubius in the mouse, was calculated from a comparison of the worm numbers of treated and control (untreated) animals.

Turning to `CSC(=Nc1cccc(C2CN3CCSC3=N2)c1)Nc1cccc(C)c1` (stereo not shown) [Example 57], the inhibition in vivo (commonly the change of the read-out against control, counted positive when it falls) at 100 mg/kg (Dose 100 mg/kg (p.o.)) was 40%. Moreover, the inhibition in vivo at 200 mg/kg (Dose 200 mg/kg (p.o.)) was 100%.

In the case of `CSC(=Nc1cccc(C2CN3CCSC3=N2)c1)Nc1ccc(F)cc1` (stereo not shown) [Example 14, S-Methyl-N-[4-fluorophenyl]-N'-[3-(6-{2,3,5,6-tetra-hydroimidazo [2,1-b]thiazolyl})phenyl]isothiourea], the inhibition in vivo at 200 mg/kg (Dose 200 mg/kg (p.o.)) was 100%. On the same count and under the same terms, the same measure for `CSC(=Nc1cccc(C2CN3CCSC3=N2)c1)Nc1ccc(C)cc1` (stereo not shown) [Example 19, S-Methyl-N-[4-methylphe_nyl]-N'-[3-(6-{2,3,5,6-tetra-hydroimidazo[2,1-b]thiazolyl})phenyl]isothiourea]: 0%. Take `CSC(=Nc1cccc(C2CN3CCSC3=N2)c1)Nc1cccc(F)c1` (stereo not shown) [Example 15, S-Methyl-N-[3-fluorophenyl]-N'-[3-(6-{2,3,5,6-tetra-hydroimidazo[2,1-b]thiazolyl})phenyl]isothiourea]: the inhibition in vivo at 100 mg/kg (Dose 100 mg/kg (p.o.)) is 100%. Moreover, for the setting “Dose 200 mg/kg (p.o.)”, the inhibition in vivo at 200 mg/kg is 100%. As to `CSC(=Nc1cccc(C2CN3CCSC3=N2)c1)NC1CCCCC1` (stereo not shown) [Example 76], the inhibition in vivo at 200 mg/kg (Dose 200 mg/kg (p.o.)) was 15%.

As for `CSC(=Nc1cccc(C2CN3CCSC3=N2)c1)Nc1ccc(Cl)cc1` (stereo not shown) [Example 17, S-Methyl-N-[4-chlorophenyl]-N'-[3-(6-{2,3,5,6-tetra-hydroimidazo[2,1-b]thiazolyl})phenyl]isothiourea], the inhibition in vivo at 200 mg/kg (Dose 200 mg/kg (p.o.)) was 88%. With “S-Methyl-N-[4-cyanophenyl]-N'-[3-(6-{2,3.5,6-tetra- hydroimidazo[2,1-b]thiazolyl})phenyl]isothiourea [Example 24]”, the Activity % runs as follows: (Dose 100 mg/kg (p.o.)) 99%; (Dose 200 mg/kg (p.o.)) 100%.

Regarding `COc1ccc(NC(=Nc2cccc(C3CN4CCSC4=N3)c2)SC)cc1` (stereo not shown) [p-C6H4OCH3], the inhibition in vivo at 200 mg/kg (Dose 200 mg/kg (p.o.)) was 59%. Still for that read-out and setting: the same measure for `CSC(=Nc1cccc(C2CN3CCSC3=N2)c1)NCc1ccccc1` (stereo not shown) [Example 75]: 54%.

Take “S-Methyl-N-[3,4-dichlorophenyl]-N'-[3-(6{2,3,5,6-tetra- hydroimidazo[2,1-b]thiazolyl}) phenyl]isothiourea [Example 18]”: the Activity % (Dose 200 mg/kg (p.o.)) was 34%. As to `CSC(=Nc1cccc(C2CN3CCSC3=N2)c1)Nc1ccccc1` (stereo not shown) [Example 13], the inhibition in vivo at 200 mg/kg (Dose 200 mg/kg (p.o.)) is 99%. Regarding “S-Methyl-N-[4-acetylphenyl]-N'-[3-(6-{2,3,5,6-tetra- hydroimidazo-[2,1-b]thiazolyl})phenyl]isothiourea [Example 25]”, the Activity % (Dose 100 mg/kg (p.o.)) is reported as 93% and the Activity % (Dose 200 mg/kg (p.o.)) is given as 100%. For `CSC(=Nc1cccc(C2CN3CCSC3=N2)c1)Nc1ccc(C)c(C)c1` (stereo not shown) [Example 56], under “Dose 200 mg/kg (p.o.)”, the inhibition in vivo at 200 mg/kg was 0%. For the compound “S-Methyl-N-[4-nitrophenyl]-N'-[3-(6-{2,3,5,6-tetra- hydroimidaza[2,1-b]thiazolyl})phenyl]isothiourea [Example 16]”, the Activity % runs as follows: (Dose 50 mg/kg (p.o.)) 95%; (Dose 100 mg/kg (p.o.)) 100%; (Dose 200 mg/kg (p.o.)) 100%.

`CSC(=Nc1cccc(C2CN3CCSC3=N2)c1)Nc1cccc([N+](=O)[O-])c1` (stereo not shown) [Example 58]: the inhibition in vivo at 100 mg/kg (Dose 100 mg/kg (p.o.)) was 95%. The inhibition in vivo at 200 mg/kg (Dose 200 mg/kg (p.o.)) is 95%. As for `CSC(=Nc1cccc(C2CN3CCSC3=N2)c1)Nc1cccc(Cl)c1` (stereo not shown) [Example 20], the inhibition in vivo at 100 mg/kg (Dose 100 mg/kg (p.o.)) was 87%. Besides, the inhibition in vivo at 200 mg/kg (Dose 200 mg/kg (p.o.)) was 100%. As to `CCSC(=Nc1cccc(C2CN3CCSC3=N2)c1)Nc1ccccc1` (stereo not shown) [Example 22, S-Ethyl-N-phenyl-N'-[3-(6{2,3,5,6-tetrahydroimidazo-[2,1-b]thiazolyl})phenyl]isothiourea], the inhibition in vivo at 200 mg/kg (Dose 200 mg/kg (p.o.)) was 92%.
